Each structure is given as a SMILES string. pIC50: −log10 of the molar value.

This assay concerns the target T1, USP28 (His-tagged USP28-FL-mammalian) (Homo sapiens, UniProt Q96RU2).
T1 construct: Expression of USP28 (1-1077)-TEV-6*His (pTT5 vector) was carried out in Expi293f cells; made in house; host or cells: Expi293F cells (pTT5 vector)
T1 sequence (Q96RU2 1-1077): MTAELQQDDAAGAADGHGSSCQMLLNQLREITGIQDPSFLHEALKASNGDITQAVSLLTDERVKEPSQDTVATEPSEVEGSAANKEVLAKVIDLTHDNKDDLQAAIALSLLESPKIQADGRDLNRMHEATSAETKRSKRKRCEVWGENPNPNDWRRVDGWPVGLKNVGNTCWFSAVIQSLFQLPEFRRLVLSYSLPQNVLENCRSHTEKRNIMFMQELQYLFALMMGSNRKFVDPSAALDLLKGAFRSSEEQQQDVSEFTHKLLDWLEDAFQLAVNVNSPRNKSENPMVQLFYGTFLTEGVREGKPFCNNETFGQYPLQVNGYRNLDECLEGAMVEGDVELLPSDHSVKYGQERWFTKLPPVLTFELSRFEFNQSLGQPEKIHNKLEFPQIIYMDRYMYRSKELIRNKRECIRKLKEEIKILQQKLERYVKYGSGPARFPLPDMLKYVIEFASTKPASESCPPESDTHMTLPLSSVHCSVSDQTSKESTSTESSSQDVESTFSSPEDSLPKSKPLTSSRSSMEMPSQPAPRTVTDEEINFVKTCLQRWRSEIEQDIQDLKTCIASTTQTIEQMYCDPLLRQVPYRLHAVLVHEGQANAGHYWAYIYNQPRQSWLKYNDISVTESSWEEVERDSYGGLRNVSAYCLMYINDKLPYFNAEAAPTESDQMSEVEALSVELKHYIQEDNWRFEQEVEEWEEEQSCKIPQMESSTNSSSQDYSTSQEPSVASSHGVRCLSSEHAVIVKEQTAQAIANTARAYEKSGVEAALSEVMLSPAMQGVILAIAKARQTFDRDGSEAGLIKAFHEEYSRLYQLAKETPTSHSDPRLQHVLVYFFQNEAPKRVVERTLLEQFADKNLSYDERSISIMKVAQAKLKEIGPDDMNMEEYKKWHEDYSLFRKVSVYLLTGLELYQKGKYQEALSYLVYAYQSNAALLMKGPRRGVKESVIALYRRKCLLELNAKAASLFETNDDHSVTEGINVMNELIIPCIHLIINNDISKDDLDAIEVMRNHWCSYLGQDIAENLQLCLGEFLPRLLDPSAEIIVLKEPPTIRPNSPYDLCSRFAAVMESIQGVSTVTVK
Put plainly: Ubiquitin-Rhodamine 110 Assay for USP28 Activity, Example A-1(a). It counts as biochemical. The conditions noted are these: biochemical IC50 range, Ubiquitin-Rhodamine 110 assay, read-out: USP28 A-1(a). In outline: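 Full-length His-tagged human USP28 (1-1077), expressed in Expi293F cells, was used at […] with 25 nM Ub-Rh110 (<<Km) in 20 mM Tris pH 8.0, 3 mM BME, 0.03% BGG and 0.01% Triton X-100. Compounds (25 μM-1.3 nM, 10-point) were preincubated with enzyme for 30 min, and the reaction ran 45 min at room temperature before a citric acid stop. Fluorescence was read at 485/535 nm, and IC50 came from 4-parameter fits of percent inhibition.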
`Cc1ccc2c(N)c(C(=O)N[C@H]3COc4nc(N5C[C@H](CF)[C@@H](N)C5)ccc4C3)sc2n1` [Example 541, 3-amino-N-[(3R)-7-[(3R,4S)-3-amino-4-(fluoromethyl)pyrrolidin-1-yl]-2H,3H,4H-pyrano[2,3-b]pyridin-3-yl]-6-methylthieno[2,3-b]pyridine-2-carboxamide]: the pIC50 is 5.70 to 6.70.
Under `Cc1ccc2c(N)c(C(=O)N[C@H]3COc4nc(N5C[C@@H](CF)[C@H](N)C5)ccc4C3)sc2n1` [Example 542, 3-amino-N-[(3R)-7-[(3S,4R)-3-amino-4-(fluoromethyl)pyrrolidin-1-yl]-2H,3H,4H-pyrano[2,3-b]pyridin-3-yl]-6-methylthieno[2,3-b]pyridine-2-carboxamide] stands 6.70 to 7.30; under `Cc1ccc2c(N)c(C(=O)N[C@H]3COc4nc(N5C[C@H](N)C6(C5)OCCO6)ccc4C3)sc2n1` [Example 543, 3-amino-N-[(3R)-7-[(9S)-9-amino-1,4-dioxa-7-azaspiro[4.4]nonan-7-yl]-2H,3H,4H-pyrano[2,3-b]pyridin-3-yl]-6-methylthieno[2,3-b]pyridine-2-carboxamide], 5.70 to 6.70.
Under `Cc1ccc2c(N)c(C(=O)N[C@H]3COc4nc(N5C[C@@H](N)C6(C5)OCCO6)ccc4C3)sc2n1` [Example 544, 3-amino-N-[(3R)-7-[(9R)-9-amino-1,4-dioxa-7-azaspiro[4.4]nonan-7-yl]-2H,3H,4H-pyrano[2,3-b]pyridin-3-yl]-6-methylthieno[2,3-b]pyridine-2-carboxamide] stands 5.70 to 6.70; under `Cc1ccc2c(N)c(C(=O)N[C@H]3COc4cc(N5C[C@H](N)[C@@]6(CCCCO6)C5)ccc4C3)sc2n1` [Example 611-1, 3-amino-N-[(3R)-7-[(4S,5R)-4-amino-6-oxa-2-azaspiro[4.5]decan-2-yl]-3,4-dihydro-2H-1-benzopyran-3-yl]-6-methylthieno[2,3-b]pyridine-2-carboxamide], 7.30 to 9.00; under `Cc1ccc2c(N)c(C(=O)N[C@H]3COc4cc(N5C[C@@H](N)[C@]6(CCCCO6)C5)ccc4C3)sc2n1` [Example 611-2, 3-amino-N-[(3R)-7-[(4R,5S)-4-amino-6-oxa-2-azaspiro[4.5]decan-2-yl]-3,4-dihydro-2H-1-benzopyran-3-yl]-6-methylthieno[2,3-b]pyridine-2-carboxamide], 7.30 to 9.00.
Under `Cc1ccc2c(N)c(C(=O)N[C@H]3COc4cc(N5C[C@H](N)[C@@]6(C5)OCC[C@@H]6C)ccc4C3)sc2n1` [Example 612-1, 3-amino-N-[(3R)-7-[(4S,5R,9S)-9-amino-4-methyl-1-oxa-7-azaspiro[4.4]nonan-7-yl]-3,4-dihydro-2H-1-benzopyran-3-yl]-6-methylthieno[2,3-b]pyridine-2-carboxamide] stands 7.30 to 9.00; under `Cc1ccc2c(N)c(C(=O)N[C@H]3COc4cc(N5C[C@H](N)[C@@]6(C5)OCC[C@H]6C)ccc4C3)sc2n1` [Example 612-2, 3-amino-N-[(3R)-7-[(4R,5R,9S)-9-amino-4-methyl-1-oxa-7-azaspiro[4.4]nonan-7-yl]-3,4-dihydro-2H-1-benzopyran-3-yl]-6-methylthieno[2,3-b]pyridine-2-carboxamide], 7.30 to 9.00; under `Cc1ccc2c(N)c(C(=O)N[C@H]3COc4cc(N5C[C@H](N)[C@]6(CCCCO6)C5)ccc4C3)sc2n1` [Example 652, 3-amino-N-[(3R)-7-[(4S,5S)-4-amino-6-oxa-2-azaspiro[4.5]decan-2-yl]-3,4-dihydro-2H-1-benzopyran-3-yl]-6-methylthieno[2,3-b]pyridine-2-carboxamide], 7.30 to 9.00.
For the compound `Cc1ccc2c(N)c(C(=O)N[C@H]3COc4cc(N5C[C@@H](N)[C@@]6(CCCCO6)C5)ccc4C3)sc2n1` [Example 653, 3-amino-N-[(3R)-7-[(4R,5R)-4-amino-6-oxa-2-azaspiro[4.5]decan-2-yl]-3,4-dihydro-2H-1-benzopyran-3-yl]-6-methylthieno[2,3-b]pyridine-2-carboxamide], the pIC50 was 7.30 to 9.00.
